In US8076144B2, “Protocol for risk stratification of ischemic events and optimized individualized treatment” (Cora Healthcare, Inc., priority 1999, dated 2011):

System: whole blood clot formation
Test: Ecarin-activated TEG hemostasis analysis of recalcified sodium-citrated samples taken before and after in vivo anticoagulation therapy
Set-up: species or system human
Details: 14b
Text: One exemplary protocol utilizes a sample, e.g., sample 13, that is obtained from a subject prior to administration of the anticoagulation therapy. Another sample is obtained at a first time period following administration of an anticoagulation therapy such as a direct thrombin inhibitor therapy like bivalirudin, heparin or warfarin. Each sample may be obtained into sodium citrate.
The sodium-citrated samples are recalcified, and an additional reagent is provided such as a prothrombin activator such as ecarin. The hemostasis analyzer 10 is used to measure the time to initial clot formation, R. FIG. 13 illustrates data for a sample of subjects showing time to initial clot formation R before in vivo administration of the anticoagulation therapy and after in vivo administration of the anticoagulation therapy. FIGS. 14a and 14b illustrate tracings and, respectively, showing a typical set of hemostasis parameter data before in vivo administration of the anticoagulation therapy and after in vivo administration of the anticoagulation therapy. […] Importantly, there exists correlation between the delay in initial clot formation and the dosing of the anticoagulation therapy. […]

## bivalirudin
Samples from subjects before vs after in vivo administration, recalcified citrated blood with ecarin, FIGS. 13, 14a
  delay in onset of clot formation (time to initial clot formation R): direct relationship to bivalirudin dosing
Tracings before and after in vivo administration, FIGS. 14a
  rate of clot formation α, clot strength MA and lysis LY30: within expected norms
